Read-outs that look alike come from different tables or passages of the source.

The subject of assay [1] is Patients with HR+ HER2-Neg/Low after Failure of ET Based Therapy. To be noted: No prior CDK4/6; cited from earlier work.
Assay [2] deals with HER2 negative hormone receptor-positive metastatic breast cancer patients. Kind of assay: AIPAC Phase IIb study: paclitaxel+IMP321 vs paclitaxel+placebo, overall survival. It is filed as in vivo, human. The following applies: AIPAC paclitaxel plus placebo group. On the procedure:
A multicentre, placebo-controlled, double-blind, 1:1 randomised Phase IIb study in female HER2 negative hormone receptor-positive metastatic breast cancer patients was conducted. The study comprised two stages: • stage 1 which was an open-label, safety run-in stage consisting of cohorts 1 and 2 to confirm the recommended Phase II dose (RPTD) of IMP321 in combination with paclitaxel; and • stage 2 which was a placebo-controlled, double-blind randomisation stage, paclitaxel+IMP321 at the RPTD compared to paclitaxel+placebo.
The chemo-immunotherapy phase consisted of 6 cycles of 4 weeks. Patients received weekly paclitaxel at Days 1, 8 and 15 with adjunctive treatment of study agent (IMP321) on Days 2 and 16 of each 4-week cycle. After completion of the 6-cycle chemo-immunotherapy phase, responding or stable patients received study agent (IMP321) every 4 weeks during the maintenance phase for an additional period of up to 12 injections.
The chemo-immunotherapy phase consisted of 6 cycles of 4 weeks. Patients received weekly paclitaxel at Days 1, 8 and 15 with adjunctive treatment of study agent (placebo) on Days 2 and 16 of each 4-week cycle.
After completion of the 6-cycle chemo-immunotherapy phase, responding or stable patients received study agent (placebo) every 4 weeks during the maintenance phase for an additional period of up to 12 injections. […]

For assay [3], the system named is Patients with HR+ HER2-Neg/Low after Failure of ET Based Therapy. Kind of assay: Efficacy of single agent chemotherapy after failure of ET based therapy. It is filed as in vivo, human. The following applies: Prior CDK4/6. An excerpt:
Efficacy of Single Agent Chemotherapy for Patients with HR^+ HER2-Neg/Low after Failure of ET Based Therapy

For assay [4], the system named is unresectable locally advanced or metastatic PD-L1 positive TNBC. To be noted: PD-L1 inhibitor plus paclitaxel; cited from earlier work.
The test system of assay [5] is locally recurrent unresectable or metastatic TNBC. The following applies: patients with CPS of 10 or more; cut-off Dec. 11, 2019; placebo-chemotherapy 5.6; cited from earlier work.

In the case of `CCCCCOC(=O)Nc1nc(=O)n([C@@H]2O[C@H](C)[C@@H](O)[C@H]2O)cc1F` [Capecitabine, capecitabine], in assay [1], the “ORR (%)” value is 19-30%, the “OS (months)” value is listed as 9.3-18 months and the “PFS (months)” value is recorded as 2.8-5.9 months.
On to `CC(=O)O[C@H]1C(=O)[C@@]2(C)[C@H]([C@H](OC(=O)c3ccccc3)[C@]3(O)C[C@H](OC(=O)[C@H](O)[C@@H](NC(=O)c4ccccc4)c4ccccc4)C(C)=C1C3(C)C)[C@]1(OC(C)=O)CO[C@@H]1C[C@@H]2O` [Paclitaxel, paclitaxel], for which, in assay [2] (no prior CDK4/6 therapy), the OS came to 20.4 months. Besides, the “median OS” value in assay [2] (patients pre-treated with CDK4/6) is reported as 14.9 months. In assay [3], the “ORR (%)” value was 36%, the “OS (months)” value was 14.9 months and the “PFS (months)” value worked out at 6.7 months. For the same compound, in assay [1], the “ORR (%)” value is on record as 21-51%, the “OS (months)” value is listed as 20.4-25.8 months and the “PFS (months)” value is reported as 5.9-8.8 months.
For the compound “atezolizumab: PD-L1 inhibitor tested plus paclitaxel in IMpassion131”, the “PFS over paclitaxel alone” value in assay [4] is given as “did not demonstrate a statistically significant improvement in PFS”.
Regarding “pembrolizumab-chemotherapy: pembrolizumab in combination with chemotherapy (paclitaxel, nab-paclitaxel, or carboplatin-gemcitabine), KEYNOTE-355”, the “median PFS” value in assay [5] was 9.7 months.

The values above are taken from patent publication US20250368714A1, “TREATMENT OF CANCER” (Immutep S.A.S., priority 2022, published 2025).
